Laboratory results reported in patent US20050287232A1, “Skin immune function controlling agents” (priority 1999, published 2005).
Several values for one entry are separate records, joined by “and”; a condition that tells them apart may be missing. Equal values may be shown once. Read-outs that look alike come from different tables or passages of the source.

Assays:
[1] = test system: contact hypersensitivity reaction; test: Contact hypersensitivity (CH) reaction induced and provoked with TNCB; perfume inhalation or topical application; assay type: in vivo, mice
Procedure: Female C57 BL/6 mice (aged 7-9 weeks) were used. Each group of five animals were placed in a cage (225×335×140 mm) and kept in a chamber maintained at a temperature of 21-25° C. and a relative humidity of 40-70%. The inhalation of a perfume into the animals was carried out by placing a Petri dish having a diameter of 10 cm in the cage, putting therein a filter paper impregnated with the perfume, and covering the dish with wire netting. (A filter paper impregnated with no perfume was used for a control group.) This animal experiment followed the National Research Council Guidelines. […] After 5 days (on experimental day 6), a contact hypersensitivity reaction was provoked by applying 5 μl of a 1% acetone solution of the aforesaid antigen to both sides of the right ear of each animal. The contact hypersensitivity (hereinafter referred to as CH) reaction was evaluated by measuring the thickness of the swollen left and right ears on day 7 with a micrometer and calculating the difference between the measured values. In order to examine the effect of perfume inhalation at the time of sensitization, a Petri dish containing a filter paper impregnated with the aforesaid perfume was placed in the cage over a period of time extending from day 0 to day 2. In order to examine the effect of perfume inhalation at the time of immunity provocation, the aforesaid Petri dish was placed in the cage over a period of time extending from day 5 to day 7. In order to examine the effect of the direct application of a perfume to the skin, 50 μl of 0.1% […] or diluent (50% corn oil in acetone) was applied to a region to be sensitized, and the aforesaid antigen was applied thereto after 6 hours. The long-term effect was tested by applying 50 μl of 1% perfume or diluent every day over a period of time extending from day 0 to day 2.

[2] = test system: Epidermal Langerhans' cells; test: Staining of epidermal Langerhans' cells (I-A antigen) after perfume exposure; assay type: in vivo, mouse
Procedure: Female C57 BL/6 mice (aged 7-9 weeks) were used. Each group of five animals were placed in a cage (225×335×140 mm) and kept in a chamber maintained at a temperature of 21-25° C. and a relative humidity of 40-70%. The inhalation of a perfume into the animals was carried out by placing a Petri dish having a diameter of 10 cm in the cage, putting therein a filter paper impregnated with the perfume, and covering the dish with wire netting. (A filter paper impregnated with no perfume was used for a control group.) This animal experiment followed the National Research Council Guidelines. Epidermal Langerhans' cells were stained according to the well-known method. In brief, an ear of a mouse was incubated in a 3.8% aqueous solution of ammonium thioisocyanate at 37° C. for 20 minutes to separate the epidermis from the corium. The epidermal sheet was fixed with acetone and incubated in the culture supernatant of mouse hybridoma M5/114.15.2 (American Tissue Type Collection, Rockville, Md., USA) so as to cause the secretion of anti-I-A IgG. Then, the anti-I-A IgG was combined with fluorescein isothiocyanate (FITC) (Sigma, USA)-labeled anti-mouse IgG antibody. Cells positive for the I-A antigen were observed under a confocal laser scanning microscope (MRC600; Bio Rad, USA) and analyzed. Samples were collected from each group of five mice. Three regions of each sample were analyzed by a blind test.

adenylate cyclase [3] = settings: olfactory cells of frogs; Sklar et al. 1986; cited from earlier work
adenylate cyclase [4] = settings: olfactory cells of rats; Boekhoff et al. 1990; cited from earlier work
[5] = test system: contact hypersensitivity reaction; test: CH reaction under restraint stress with perfume inhalation; assay type: in vivo, mice; settings: for Swelling: DMMB inhalation, individual animals, right ear minus left ear thickness; for Average (swelling): DMMB, average of 5 values of Table III (1), given there in × 0.01 mm
Procedure: Female C57 BL/6 mice (aged 7-9 weeks) (purchased from Charles River Japan) were used. Each group of five animals were placed in a cage (225×335×140 mm) and kept in a chamber maintained at a temperature of 21-25° C. and a relative humidity of 40-70%. The inhalation of a perfume into the animals was carried out by placing a Petri dish having a diameter of 10 cm in the cage, putting therein a filter paper impregnated with the perfume, and covering the dish with wire netting. (A filter paper impregnated with no perfume was used for a control group.) These animals were laid in a prone position and wrapped in a pliable fine-meshed wire net for 6 hours. This animal experiment gained the approval of the animal experimentation committee of our company following the National Research Council Guidelines.
Mice were sensitized by applying 2,4,6-trinitrochlorobenzene (TNCB) (10 μl of a 3% acetone solution) to the inner and outer surfaces of the left ear of each mouse. After 5 days, a CH reaction was provoked by applying TNCB (5 μl of a 1% acetone solution) to the inner and outer surfaces of the right ear of each mouse. After 24 hours, the swelling was evaluated by measuring the thicknesses of both ears with a micrometer (manufactured by Mitsutoyo) and subtracting the thickness of the left ear from that of the right ear. The exposure of the animals to a perfume was continued over a period of time extending from 24 hours before provocation to the measurement of the swelling. The restraint stress was imposed 24 hours before provocation and repeated immediately after provocation. This experiment was carried out by using the animals in groups of five and using 1,3-dimethoxy-5-methylbenzene (DMMB; purchased from Takasago International Inc.) as the perfume.
The values given in Table III, (1) are values obtained by subtracting the measured thickness of the left ear of each test animal from that of the right ear thereof.

[6] = test system: Langerhans' cells in the epidermis; test: Staining of Langerhans' cells after stress imposition with perfume inhalation; assay type: in vivo, mice; settings: DMMB at the time of stress imposition, FIG. 5
Procedure: Epidermal Langerhans' cells were stained according to the well-known method. In brief, an ear of a mouse was incubated in a 3.8% aqueous solution of ammonium thioisocyanate at 37° C. for 20 minutes to separate the epidermis from the corium. The epidermal sheet was fixed with acetone and incubated in the culture supernatant of mouse hybridoma M5/114.15.2 (American Tissue Type Collection, Rockville, Md., USA) so as to cause the secretion of anti-I-A IgG. Then, the anti-I-A IgG was combined with fluorescein isothiocyanate (FITC) (Sigma, USA)-labeled anti-mouse IgG antibody. Cells positive for the I-A antigen were observed under a confocal laser scanning microscope (MRC600; Bio Rad, USA) and analyzed. Samples were collected from each group of five mice. Three regions of each sample were analyzed by a blind test.
Female C57 BL/6 mice (aged 7-9 weeks) (purchased from Charles River Japan) were used. Each group of five animals were placed in a cage (225×335×140 mm) and kept in a chamber maintained at a temperature of 21-25° C. and a relative humidity of 40-70%. The inhalation of a perfume into the animals was carried out by placing a Petri dish having a diameter of 10 cm in the cage, putting therein a filter paper impregnated with the perfume, and covering the dish with wire netting. […]

[7] = Table I, after exposure to citralva, SD in parentheses
[8] = Table II, animals kept in the presence of citralva or lyral/lilial, SD in parentheses

Q: Which “influence of topical application on the CH reaction” value ([1]; direct application to the skin, 50 μl of 0.1% or 1% perfume, FIG. 3) does the source give for `CC(C)=CCCC(C)=CC#N` [citralva, 3,7-dimethyl-2,6-octadienenitrile] here?
A: The value was “neither citralva nor lyral/lilial exerts an influence on the CH reaction”.

Q: What about the “suppression of the induction of the CH reaction” value ([1]; inhalation, exposure for 2 days at the time of induction (day 0 to day 2), FIG. 1 B) of the same compound?
A: The value was “about 20%”.

Q: And the “suppression of the provocation of the CH reaction” value ([1]; inhalation, exposure for 2 days at the time of provocation (day 5 to day 7), compared with controls, FIG. 1 A)?
A: The value was “about 50%”.

Q: And the “effect on CH reaction, citralva compared with lyral/lilial” value ([1]; perfume inhalation, FIG. 2)?
A: Its value is “significantly more powerful than that of lyral/lilial”.

Q: And the “effect on the provocation of a CH reaction” value ([1]; perfume inhalation, FIG. 2)?
A: The value was “suppress the CH reaction”.

Q: And the Area per cell [2, 7]?
A: Its Area per cell is 172.0 (78.3) μm^2.

Q: And the “Intensity of I-A” value [2, 7]?
A: The value was 89.9 (2.9).

Q: What about the “Number of LC” value [2, 7] of the same compound?
A: Its value is 119.8 (15.0) per mm^2.

Q: What about the Number of dendrites [2, 7] of the same compound?
A: The Number of dendrites was 4.40 (0.92).

Q: What about the “effect on Langerhans' cells, comparison of perfumes” value ([2]; Table II) of the same compound?
A: The value was “more powerful effect than lyral/lilial”.

Q: And the “Intensity of I-A” value [2, 8]?
A: Its value is 84.9 (3.1).

Q: And the Number of dendrites [2, 8]?
A: Its Number of dendrites is 2.56 (0.12).

Q: And the “change in number of LC” value ([2]; after exposure to citralva, versus control (Table I))?
A: Its value is “significantly decreased”.

Q: And the “change in area of each I-A-positive cell” value ([2]; exposure to citralva, versus control)?
A: The value was “significantly reduced”.

Q: What about the adenylate cyclase activation (adenylate cyclase [3]) of the same compound?
A: Its adenylate cyclase activation is “activates adenylate cyclase”.

Q: And the adenylate cyclase activation (adenylate cyclase [4])?
A: Its adenylate cyclase activation is “activates adenylate cyclase”.

Q: Which Swelling ([5]; Restrained) does the source give for `COc1cc(C)cc(OC)c1` [DMMB, 1,3-dimethoxy-5-methylbenzene] here?
A: The Swelling was 17 × 0.01 mm (2×) and 18 × 0.01 mm and 15 × 0.01 mm and 14 × 0.01 mm.

Q: And the “Average (swelling)” value ([5]; Restrained)?
A: Its value is 16.2.

Q: And the Swelling ([5]; Unrestrained)?
A: Its Swelling is 17 × 0.01 mm (2×) and 16 × 0.01 mm (2×) and 13 × 0.01 mm.

Q: What about the “Average (swelling)” value ([5]; Unrestrained) of the same compound?
A: Its value is 15.38.

Q: And the “suppression of the skin immune reaction by stress” value ([5]; animal group having undergone DMMB inhalation, Table III, FIG. 4)?
A: Its value is “not observed”.

Q: What about the “number of Langerhans' cells” value ([6]; compared with group without stress imposition) of the same compound?
A: The value was “of the same order”.

Q: And the “number of Langerhans' cells” value ([6]; compared with stress imposition alone)?
A: Its value is “significantly increased”.
